Consider two compounds from ChEMBL document CHEMBL5360518, “Discovery of a novel photoswitchable PI3K inhibitor toward optically-controlled anticancer activity” (Bioorg Med Chem, 2022).

Calls of active or inactive are those of the source. The rule behind the calls is not given here.

Experiment [1] deals with HGC-27. As to the kind of experiment: Induction of apoptosis in human HGC-27 cells harboring PI3KCA mutation and overactive PI3K pathway assessed as late apoptotic cells at 0.4 uM incubated for 48 hrs under dark condition by Annexin V-FITC/PI staining based flow cytometry analysis (reference value: 3.39%). It is filed as functional.
The target in experiment [2] is T1, Phosphatidylinositol 4,5-bisphosphate 3-kinase catalytic subunit alpha isoform (Homo sapiens, UniProt P42336). As to the kind of experiment: Inhibition of PI3Kalpha (unknown origin) using PIP2 as substrate incubated for 1 hr in presence of ATP under dark condition by ADP-Glo luminescent assay. A general note: In ADP-Glo the light output rises with the ADP produced.
T1 sequence (P42336 whole entry, canonical isoform): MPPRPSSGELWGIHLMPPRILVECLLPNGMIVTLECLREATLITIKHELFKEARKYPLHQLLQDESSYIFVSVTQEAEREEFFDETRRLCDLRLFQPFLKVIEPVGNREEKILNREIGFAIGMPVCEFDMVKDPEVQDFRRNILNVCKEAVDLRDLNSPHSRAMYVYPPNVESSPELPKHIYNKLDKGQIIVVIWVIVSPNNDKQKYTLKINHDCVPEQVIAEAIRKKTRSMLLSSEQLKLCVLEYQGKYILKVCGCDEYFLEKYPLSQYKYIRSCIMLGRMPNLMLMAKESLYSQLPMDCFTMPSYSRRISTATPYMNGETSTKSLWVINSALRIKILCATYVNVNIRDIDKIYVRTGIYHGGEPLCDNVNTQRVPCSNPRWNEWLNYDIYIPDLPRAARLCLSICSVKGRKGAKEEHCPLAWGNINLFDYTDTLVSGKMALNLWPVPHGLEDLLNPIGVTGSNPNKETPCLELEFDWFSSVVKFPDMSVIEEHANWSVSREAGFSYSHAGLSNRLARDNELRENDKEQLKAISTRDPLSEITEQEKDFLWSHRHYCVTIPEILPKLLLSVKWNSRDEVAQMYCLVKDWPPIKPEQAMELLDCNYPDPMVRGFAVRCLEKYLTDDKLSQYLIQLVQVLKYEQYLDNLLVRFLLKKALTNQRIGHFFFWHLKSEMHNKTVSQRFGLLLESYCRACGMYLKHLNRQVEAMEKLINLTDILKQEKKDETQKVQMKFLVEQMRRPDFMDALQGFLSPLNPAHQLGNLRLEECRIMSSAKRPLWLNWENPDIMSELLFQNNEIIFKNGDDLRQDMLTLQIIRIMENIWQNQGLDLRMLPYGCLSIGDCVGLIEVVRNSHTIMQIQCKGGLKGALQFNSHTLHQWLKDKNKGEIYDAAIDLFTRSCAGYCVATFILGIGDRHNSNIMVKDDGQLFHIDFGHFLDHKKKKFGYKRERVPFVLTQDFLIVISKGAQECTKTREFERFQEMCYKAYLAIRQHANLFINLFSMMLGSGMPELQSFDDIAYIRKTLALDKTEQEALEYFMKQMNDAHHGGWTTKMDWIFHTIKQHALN

The test system of experiment [3] is NCI-H460. As to the kind of experiment: Induction of apoptosis in human NCI-H460 cells harboring PI3KCA mutation and overactive PI3K pathway assessed as late apoptotic cells at 0.4 uM incubated for 48 hrs under dark condition by Annexin V-FITC/PI staining based flow cytometry analysis (reference value: 2.27%). It is filed as functional. In general terms: In flow cytometry, cells or beads pass a laser one at a time.

Experiment [4] deals with RAC-alpha serine/threonine-protein kinase (Homo sapiens) (UniProt P31749). As to the kind of experiment: Inhibition of AKT phosphorylation at T308 residue in human HGC-27 cells harboring PI3KCA mutation and overactive PI3K pathway by Western blot analysis. It is filed as cell-based. The note with it: dose 0.08-0.4 µM. A general note: Immunoblotting shows a protein as a band on a membrane.
Chain of RAC-alpha serine/threonine-protein kinase (Homo sapiens) (P31749 whole entry): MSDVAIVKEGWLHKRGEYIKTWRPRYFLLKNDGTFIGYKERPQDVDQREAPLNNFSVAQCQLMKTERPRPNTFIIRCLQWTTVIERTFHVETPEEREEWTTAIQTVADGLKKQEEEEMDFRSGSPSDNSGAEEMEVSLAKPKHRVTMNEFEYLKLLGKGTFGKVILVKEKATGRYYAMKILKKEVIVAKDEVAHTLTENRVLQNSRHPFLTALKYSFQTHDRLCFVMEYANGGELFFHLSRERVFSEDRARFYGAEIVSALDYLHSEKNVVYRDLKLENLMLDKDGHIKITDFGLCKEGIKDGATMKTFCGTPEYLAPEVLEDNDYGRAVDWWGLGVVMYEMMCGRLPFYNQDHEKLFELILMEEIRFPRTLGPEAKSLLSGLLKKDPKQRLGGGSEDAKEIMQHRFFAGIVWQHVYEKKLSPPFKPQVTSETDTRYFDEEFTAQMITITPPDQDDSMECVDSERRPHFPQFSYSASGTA

For experiment [5] the target is unchanged. In words: Inhibition of AKT phosphorylation at S473 residue in human HGC-27 cells harboring PI3KCA mutation and overactive PI3K pathway by Western blot analysis. It is filed as cell-based. The following applies: dose 0.08-0.4 µM.
Experiment [6] has as its system HGC-27. As to the kind of experiment: Induction of apoptosis in human HGC-27 cells harboring PI3KCA mutation and overactive PI3K pathway assessed as early apoptotic cells at 0.4 uM incubated for 48 hrs under dark condition by Annexin V-FITC/PI staining based flow cytometry analysis (reference value: 2.26%). It is filed as functional.
The target of experiment [7] is RAC-alpha serine/threonine-protein kinase (Homo sapiens) (UniProt P31749). As to the kind of experiment: Inhibition of AKT phosphorylation at T308 residue in human HGC-27 cells harboring PI3KCA mutation and overactive PI3K pathway at 0.08 to 0.4 uM compound irradiated for 2 mins at 365 nm by Western blot analysis. It is filed as cell-based. The note with it: dose 0.08-0.4 µM.

The target is the same in experiment [8]. As to the kind of experiment: Inhibition of AKT phosphorylation at S473 residue in human HGC-27 cells harboring PI3KCA mutation and overactive PI3K pathway at 0.08 to 0.4 uM compound irradiated for 2 mins at 365 nm by Western blot analysis. It is filed as cell-based. The note with it: dose 0.08-0.4 µM.
Experiment [9] has as its system NCI-H460. As to the kind of experiment: Induction of apoptosis in human NCI-H460 cells harboring PI3KCA mutation and overactive PI3K pathway assessed as early apoptotic cells at 0.08 uM incubated for 48 hrs under dark condition by Annexin V-FITC/PI staining based flow cytometry analysis (reference value: 2.6%). It is filed as functional.
The target in experiment [10] is T2, Ribosomal protein S6 kinase (Homo sapiens) (UniProt P51812+Q9UBS0+O75676+Q15349+O75582+P23443+Q9UK32+Q15418). As to the kind of experiment: Inhibition of S6 phosphorylation in human HGC-27 cells harboring PI3KCA mutation and overactive PI3K pathway at 0.08 to 0.4 uM compound irradiated for 2 mins at 365 nm by Western blot analysis. The following applies: dose 0.08-0.4 µM. It is filed as cell-based.

In experiment [11] the test system is NCI-H460. In words: Induction of apoptosis in human NCI-H460 cells harboring PI3KCA mutation and overactive PI3K pathway assessed as late apoptotic cells at 0.08 uM incubated for 48 hrs under dark condition by Annexin V-FITC/PI staining based flow cytometry analysis (reference value: 2.27%). It is filed as functional.
Experiment [12] concerns HGC-27. As to the kind of experiment: Inhibition of colony formation in human HGC-27 cells harboring PI3KCA mutation and overactive PI3K pathway assessed as reduction in number of colonies incubated for 10 days under dark condition by crystal violet staining based assay. It is filed as functional, cell-based. The following applies: dose 0.08-0.4 µM, time 10.0 day.
Experiment [13] concerns the target T2, Ribosomal protein S6 kinase (Homo sapiens). As to the kind of experiment: Inhibition of S6 phosphorylation in human HGC-27 cells harboring PI3KCA mutation and overactive PI3K pathway by Western blot analysis. It is filed as cell-based. The note with it: dose 0.08-0.4 µM.
Experiment [14] has as its system HGC-27. As to the kind of experiment: Antitumor activity against CM-Dil labeled human HGC-27 cells implanted in yolk sac of Albino wild type zebrafish embryos assessed as inhibition of tumor growth by measuring reduction in fluorescence density at 0.391 to 0.781 ng per fish incubated for 48 hrs in dark condition by fluorescence microscopic analysis. It is filed as functional. The note with it: dose 0.391-0.781 ng.

The subject of experiment [15] is HGC-27. In words: Induction of apoptosis in human HGC-27 cells harboring PI3KCA mutation and overactive PI3K pathway assessed as late apoptotic cells at 0.08 uM incubated for 48 hrs under dark condition by Annexin V-FITC/PI staining based flow cytometry analysis (reference value: 3.39%). It is filed as functional.
Experiment [16] concerns NCI-H460. In words: Induction of apoptosis in human NCI-H460 cells harboring PI3KCA mutation and overactive PI3K pathway assessed as early apoptotic cells at 0.4 uM incubated for 48 hrs under dark condition by Annexin V-FITC/PI staining based flow cytometry analysis (reference value: 2.6%). It is filed as functional.
For experiment [17], the system named is HGC-27. As to the kind of experiment: Induction of apoptosis in human HGC-27 cells harboring PI3KCA mutation and overactive PI3K pathway assessed as early apoptotic cells at 0.08 uM incubated for 48 hrs under dark condition by Annexin V-FITC/PI staining based flow cytometry analysis (reference value: 2.26%). It is filed as functional.
Experiment [18] relates to HGC-27. As to the kind of experiment: Inhibition of cell migration in human HGC-27 cells harboring PI3KCA mutation and overactive PI3K pathway assessed as reduction in migratory ability at 0.08 to 0.4 uM incubated for 16 hrs under dark condition by crystal violet staining based assay. It is filed as functional. The following applies: dose 0.08-0.4 µM.
For experiment [19], the system named is HGC-27. As to the kind of experiment: Induction of apoptosis in human HGC-27 cells harboring PI3KCA mutation and overactive PI3K pathway assessed as late apoptotic cells at 0.4 uM incubated for 48 hrs under irradiation with 365 nm UV light 2 mins once for every 8 hrs by Annexin V-FITC/PI staining based flow cytometry analysis (reference value: 3.39%). It is filed as functional.

Experiment [20] addresses T2, Ribosomal protein S6 kinase (Homo sapiens). In words: Inhibition of S6 phosphorylation in human HGC-27 cells harboring PI3KCA mutation and overactive PI3K pathway at 0.08 to 0.4 uM compound irradiated for 5 mins at 520 nm by Western blot analysis. It is filed as cell-based. The following applies: dose 0.08-0.4 µM.
Experiment [21] deals with HGC-27. As to the kind of experiment: Induction of apoptosis in human HGC-27 cells harboring PI3KCA mutation and overactive PI3K pathway assessed as early apoptotic cells at 0.4 uM incubated for 48 hrs under irradiation with 365 nm UV light 2 mins once for every 8 hrs by Annexin V-FITC/PI staining based flow cytometry analysis (reference value: 2.26%). It is filed as functional.

Experiment [22] has as its system HGC-27. As to the kind of experiment: Inhibition of colony formation in human HGC-27 cells harboring PI3KCA mutation and overactive PI3K pathway assessed as reduction in number of colonies incubated for 10 days in presence of irradiation at 365 nm UV light for 2 mins once every 8 hrs by crystal violet staining based assay. It is filed as functional, cell-based. The following applies: dose 0.08-0.4 µM, time 10.0 day.

Experiment [23] deals with NCI-H460. As to the kind of experiment: Induction of apoptosis in human NCI-H460 cells harboring PI3KCA mutation and overactive PI3K pathway assessed as early apoptotic cells at 0.4 uM incubated for 48 hrs under irradiation with 365 nm UV light 2 mins once for every 8 hrs by Annexin V-FITC/PI staining based flow cytometry analysis (reference value: 2.6%). It is filed as functional.

Experiment [24] relates to HGC-27. In words: Inhibition of cell migration in human HGC-27 cells harboring PI3KCA mutation and overactive PI3K pathway assessed as reduction in migratory ability at 0.08 to 0.4 uM incubated for 16 hrs in presence of irradiation at 365 nm UV light for 2 mins once every 8 hrs by crystal violet staining based assay. It is filed as functional. The note with it: dose 0.08-0.4 µM.

Experiment [25] concerns the target RAC-alpha serine/threonine-protein kinase (Homo sapiens) (UniProt P31749). In words: Inhibition of AKT phosphorylation at S473 residue in human HGC-27 cells harboring PI3KCA mutation and overactive PI3K pathway at 0.08 to 0.4 uM compound irradiated for 5 mins at 520 nm by Western blot analysis. It is filed as cell-based. The note with it: dose 0.08-0.4 µM.
For experiment [26], the system named is NCI-H460. As to the kind of experiment: Induction of apoptosis in human NCI-H460 cells harboring PI3KCA mutation and overactive PI3K pathway assessed as early apoptotic cells at 0.08 uM incubated for 48 hrs under irradiation with 365 nm UV light 2 mins once for every 8 hrs by Annexin V-FITC/PI staining based flow cytometry analysis (reference value: 2.6%). It is filed as functional.

The test system of experiment [27] is NCI-H460. In words: Induction of apoptosis in human NCI-H460 cells harboring PI3KCA mutation and overactive PI3K pathway assessed as late apoptotic cells at 0.4 uM incubated for 48 hrs under irradiation with 365 nm UV light 2 mins once for every 8 hrs by Annexin V-FITC/PI staining based flow cytometry analysis (reference value: 2.27%). It is filed as functional.

The subject of experiment [28] is HGC-27. As to the kind of experiment: Induction of apoptosis in human HGC-27 cells harboring PI3KCA mutation and overactive PI3K pathway assessed as late apoptotic cells at 0.08 uM incubated for 48 hrs under irradiation with 365 nm UV light 2 mins once for every 8 hrs by Annexin V-FITC/PI staining based flow cytometry analysis (reference value: 3.39%). It is filed as functional.

In experiment [29] the test system is HGC-27. In words: Antitumor activity against CM-Dil labeled human HGC-27 cells implanted in yolk sac of Albino wild type zebrafish embryos assessed as inhibition of tumor growth by measuring reduction in fluorescence density at 0.391 to 0.781 ng per fish incubated for 48 hrs in presence of irradiation with 365 nm UV light by fluorescence microscopic analysis. The note with it: dose 0.391-0.781 ng. It is filed as functional, cell-based.

Experiment [30] deals with T1, Phosphatidylinositol 4,5-bisphosphate 3-kinase catalytic subunit alpha isoform. As to the kind of experiment: Inhibition of PI3Kalpha (unknown origin) using PIP2 as substrate incubated for 1 hr in presence of ATP under irradiation with 365 nm UV light by ADP-Glo luminescent assay.
Experiment [31] has as its target RAC-alpha serine/threonine-protein kinase (Homo sapiens) (UniProt P31749). In words: Inhibition of AKT phosphorylation at T308 residue in human HGC-27 cells harboring PI3KCA mutation and overactive PI3K pathway at 0.08 to 0.4 uM compound irradiated for 5 mins at 520 nm by Western blot analysis. It is filed as cell-based. The following applies: dose 0.08-0.4 µM.

Experiment [32] has as its system HGC-27. In words: Induction of apoptosis in human HGC-27 cells harboring PI3KCA mutation and overactive PI3K pathway assessed as early apoptotic cells at 0.08 uM incubated for 48 hrs under irradiation with 365 nm UV light 2 mins once for every 8 hrs by Annexin V-FITC/PI staining based flow cytometry analysis (reference value: 2.26%). It is filed as functional.
Experiment [33] relates to NCI-H460. In words: Induction of apoptosis in human NCI-H460 cells harboring PI3KCA mutation and overactive PI3K pathway assessed as late apoptotic cells at 0.08 uM incubated for 48 hrs under irradiation with 365 nm UV light 2 mins once for every 8 hrs by Annexin V-FITC/PI staining based flow cytometry analysis (reference value: 2.27%). It is filed as functional.

For orientation: IC50 means the concentration that gives 50% inhibition. `COc1ncc(-c2cc(Oc3ccc(/N=N/c4ccc(Oc5cc(-c6cnc(OC)c(NS(=O)(=O)c7ccc(F)cc7F)c6)cc6c(C)ncnc56)cc4)cc3)c3ncnc(C)c3c2)cc1NS(=O)(=O)c1ccc(F)cc1F`: the Activity came to 15.95% in the experiment on HGC-27 [1]; 4.84% with NCI-H460 [3]; 14.86% in the experiment with HGC-27 [6]; 2.69% in the experiment with NCI-H460 [9]; 3.17% with NCI-H460 [11]; 5.11% in the experiment with HGC-27 [15]. Further, the Activity is 2.36% in the experiment with NCI-H460 [16] and 7.28% in the experiment on HGC-27 [17]. The IC50 in [2] was found to be 17.7 nM. Further, the inhibition result (in [4]; in experiment [5]; in the experiment with HGC-27 [12]; in experiment [13]) was “Dose-Dependent Effect” throughout. Further, the inhibition entry (in experiment [7]; in experiment [8]; in [10]; with HGC-27 [18]) was “Active” each time. The outcome in the experiment on HGC-27 [14] was Active.

Regarding `COc1ncc(-c2cc(Oc3ccc(/N=N\c4ccc(Oc5cc(-c6cnc(OC)c(NS(=O)(=O)c7ccc(F)cc7F)c6)cc6c(C)ncnc56)cc4)cc3)c3ncnc(C)c3c2)cc1NS(=O)(=O)c1ccc(F)cc1F`, the Activity in the experiment on HGC-27 [19] was found to be 14.28%; in the experiment with HGC-27 [21] it was 66.74%; with NCI-H460 [23], 6.05%; in the experiment on NCI-H460 [26] it was 5.44%; in the experiment on NCI-H460 [27], 26.4%; with HGC-27 [28], 3.6%. The Activity is 33.67% in the experiment on HGC-27 [32] and 18.8% in the experiment on NCI-H460 [33]. For the same compound, the inhibition result (in [4]; in experiment [5]; with HGC-27 [22]; in [13]) was “Dose-Dependent Effect” each time. Moreover, the inhibition result (in experiment [20]; in the experiment on HGC-27 [24]; in experiment [25]; in [31]) was “Active” each time. The outcome with HGC-27 [29] was Active. Moreover, the IC50 in experiment [30] amounted to 5.24 nM.
